Assay results from patent US20250186442A1, “Obicetrapib and Ezetimibe Combination Treatment and Fixed Dose Pharmaceutical Compositions” (NewAmsterdam Pharma B.V., priority 2022, published 2025).

How the values were obtained:
Lp(a) = experiment: ROSE2 phase 2b clinical trial - Lp(a); assay type: in vivo, human; settings: mITT Population; obicetrapib 10 mg, ezetimibe 10 mg
Protocol: The exploratory objectives of this study include the following: • To evaluate the effect of obicetrapib 10 mg+ezetimibe 10 mg combination therapy and obicetrapib 10 mg monotherapy, when used as an adjunct to high-intensity statin therapy, on non-high-density lipoprotein cholesterol (non-HDL-C), very low-density lipoprotein cholesterol (VLDL-C), HDL-C, TG, ApoE, Lp(a), and HDL-ApoE at Day 84; • To evaluate the effect of obicetrapib 10 mg+ezetimibe 10 mg combination therapy and obicetrapib 10 mg monotherapy, when used as an adjunct to high-intensity statin therapy, on the proportion of participants achieving predefined LDL-C targets at Day 84; • To assess the mean trough plasma levels of obicetrapib 10 mg+ezetimibe 10 mg combination therapy and obicetrapib 10 mg monotherapy at steady state on Days 28, 84, and 112; and • To evaluate the safety and tolerability profiles of obicetrapib 10 mg+ezetimibe 10 mg combination therapy and obicetrapib 10 mg monotherapy, when used as an adjunct to high-intensity statin therapy, assessed by clinical laboratory values and incidence of AEs.
This study will be a placebo-controlled, double-blind, randomized, Phase 2 study to evaluate the efficacy, safety, and tolerability of obicetrapib 10 mg, both in combination with ezetimibe 10 mg and as monotherapy, as an adjunct to high-intensity statin therapy. This study will take place at approximately 20 sites in the United States.
Up to 2 weeks after the Screening Visit, participants will return to the site on Day 1 (Visit 2) and confirm study eligibility before being randomized and beginning treatment. Approximately 114 eligible participants (38 participants per treatment group) will be randomized in a 1:1:1 ratio to 1 of the following treatment groups: • Combination therapy: Obicetrapib 10 mg+ezetimibe 10 mg (administered as one 10 mg obicetrapib tablet and one 10 mg ezetimibe capsule); • Obicetrapib monotherapy: Obicetrapib 10 mg (administered as one 10 mg obicetrapib tablet and 1 placebo capsule); or • Placebo (administered as 1 placebo tablet and 1 placebo capsule).
The exploratory efficacy endpoints include the following: • Percent change from Day 1 to Day 84 in non-HDL-C, VLDL-C, HDL-C, TG, ApoE, Lp(a), and HDL-ApoE for the obicetrapib 10 mg+ezetimibe 10 mg combination treatment group compared with the placebo group and for the obicetrapib 10 mg monotherapy treatment group compared with the placebo group; and • Proportion of participants at Day 84 that achieve LDL-C<2.6 mmol/L (<100 mg/dL), LDL-C<1.8 mmol/L (<70 mg/dL), and LDL-C<1.3 mmol/L (<50 mg/dL) for the obicetrapib 10 mg+ezetimibe 10 mg combination treatment group compared with the placebo group and for the obicetrapib 10 mg monotherapy treatment group compared with the placebo group.
Blood samples for the lipid profile must be obtained under fasting conditions (ie, after the participant has fasted for approximately 10 hours). For the purposes of this study, fasting will be defined as nothing by mouth except water and any essential medications. If a participant is not fasting, the Investigator should reschedule the visit as soon as possible. LDL-C level will be calculated using the Friedewald equation unless TG≥400 mg/dL or LDL-C≤50 mg/dL; in both cases, LDL-C level will be measured directly by preparative ultracentrifugation, also referred to as beta quantification. Additionally, LDL-C will be measured by preparative ultracentrifugation, also referred to as beta quantification, at baseline (Visit 2) and at the end of the 12-week Treatment Period (Visit 4) for all participants.
The Modified ITT (mITT) Population will include all participants in the ITT Population who receive at least 1 dose of any study drug and have a baseline value for the LDL-C assessment. […]

LDL-C = settings: cited from earlier work
[1] = TA-8995-07, healthy males; cited from earlier work
[2] = patients; daily dosing of 10 mg for 12 weeks, alone and with 2 different statins; cited from earlier work

CCOC(=O)N1c2ccc(C(F)(F)F)cc2[C@@H](N(Cc2cc(C(F)(F)F)cc(C(F)(F)F)c2)c2ncc(OCCCC(=O)O)cn2)C[C@H]1CC [Obicetrapib, {4-[(2-{[3,5-bis(trifluoromethyl)benzyl][(2R,4S)-1-(ethoxycarbonyl)-2-ethyl-6-(trifluoromethyl)-1,2,3,4-tetrahydroquinolin-4-yl]amino}pyrimidin-5-yl)oxy]butanoic acid}]
Lp(a) Change from Baseline to Day 84, Mean (Lp(a)): -19.71 nmol/L | Lp(a) Change from Baseline to Day 84, Median (Lp(a)): -4.50 nmol/L | Lp(a) Day 84, Mean (Lp(a)): 77.96 nmol/L | Lp(a) Day 84, Median (Lp(a)): 26.25 nmol/L | Lp(a) Percent Change from Baseline to Day 84 (%), Mean (Lp(a)): −15.16% | Lp(a) Percent Change from Baseline to Day 84 (%), Median (Lp(a)): −11.95% | LDL-C reduction (LDL-C; TA-8995-03, 10 mg daily dose, mild dyslipidemia): 45.4% | additional reduction in LDL-C (LDL-C; obicetrapib 10 mg on top of atorvastatin 20 mg): 50.3% | absorption [1]: steadily absorbed | principal route of excretion [1]: in the feces | tolerability [2]: well tolerated
